From patent US20240343740A1, “MACROCYCLIC GLUCAGON-LIKE PEPTIDE 1 RECEPTOR AGONISTS” (Eli Lilly and Company, priority 2021, published 2024)

How the values were obtained:
[1] = target: T1, human GLP-1R (Homo sapiens, UniProt P43220); test: Human GLP-1 Receptor HEK293 cell cAMP assay, 581 fmol/mg GLP-1R expression density; assay type: cell-based; design: expressed in transfected cells; host or cells: HEK293 clonal cell line; details: HEK293 cell line with 581 fmol/mg expression density of GLP-1R; for EC50: geometric mean, read-out: EC50 nM (SEM, n), intracellular cAMP response, relative EC50; for Emax: percent of maximal response to GLP-1(7-36)NH2, arithmetic mean, read-out: Emax % (SEM, n), intracellular cAMP response
Protocol: (§1) Human GLP-1 Receptor HEK293 Cell cAMP Assay
(§2) GLP-1 Receptor functional activity is determined using cAMP formation in an HEK293 clonal cell line expressing human GLP-1R (NCBI accession number NP_002053) at an expression density of 581±94 (n=6) and 104±12 (n=5) fmol/mg protein (determined using [^125I]GLP-1(7-36)NH2 homologous competition binding analysis). The hGLP-1R receptor expressing cells are treated with compound (20 point concentration-response curve in DMSO, 2.75-fold Labcyte Echo direct dilution, 384 well plate Corning Cat #3570) in DMEM (Gibco Cat #31053) supplemented with 1× GlutaMAX™ (Gibco Cat #35050), 0.1% bovine casein (Sigma C4765-10ML), 250 μM IBMX (3-Isobutyl-1-methylxanthine, Acros Cat #228420010) and 20 mM HEPES (Gibco Cat #15630) in a 20 μL assay volume (final DMSO concentration is 0.5%). After a 30 min incubation at 37° C., the resulting increase in intracellular cAMP is quantitatively determined using the CisBio cAMP Dynamic 2 HTRF Assay Kit (62AM4PEJ). Briefly, cAMP levels within the cell are detected by adding the cAMP-d2 conjugate in cell lysis buffer (10 μL) followed by the antibody anti-cAMP-Eu^3+-Cryptate, also in cell lysis buffer (10 μL). The resulting competitive assay is incubated for at least 60 min at RT, then detected using a PerkinElmer Envision® instrument with excitation at 320 nm and emission at 665 nm and 620 nm. Envision units (emission at 665 nm/620 nm*10,000) are inversely proportional to the amount of cAMP present and are converted to nM cAMP per well using a cAMP standard curve. The amount of cAMP generated (nM) in each well is converted to a percent of the maximal response observed with human GLP-1(7-36)NH2. A relative EC50 value and percent top (Emax) are derived by non-linear regression analysis using the percent maximal response vs. the concentration of compound added, fitted to a four-parameter logistic equation.

[2] = target: T1, human GLP-1R; test: Human GLP-1 Receptor HEK293 cell cAMP assay, 104 fmol/mg GLP-1R expression density; assay type: cell-based; design: expressed in transfected cells; host or cells: HEK293 clonal cell line; details: HEK293 cell line with 104 fmol/mg expression density of GLP-1R; for EC50: geometric mean, read-out: EC50 nM (SEM, n), intracellular cAMP response, relative EC50; for Emax: percent of maximal response to GLP-1(7-36)NH2, arithmetic mean, read-out: Emax % (SEM, n), intracellular cAMP response
Protocol: as §1, §2

T1 sequence (P43220 24-463): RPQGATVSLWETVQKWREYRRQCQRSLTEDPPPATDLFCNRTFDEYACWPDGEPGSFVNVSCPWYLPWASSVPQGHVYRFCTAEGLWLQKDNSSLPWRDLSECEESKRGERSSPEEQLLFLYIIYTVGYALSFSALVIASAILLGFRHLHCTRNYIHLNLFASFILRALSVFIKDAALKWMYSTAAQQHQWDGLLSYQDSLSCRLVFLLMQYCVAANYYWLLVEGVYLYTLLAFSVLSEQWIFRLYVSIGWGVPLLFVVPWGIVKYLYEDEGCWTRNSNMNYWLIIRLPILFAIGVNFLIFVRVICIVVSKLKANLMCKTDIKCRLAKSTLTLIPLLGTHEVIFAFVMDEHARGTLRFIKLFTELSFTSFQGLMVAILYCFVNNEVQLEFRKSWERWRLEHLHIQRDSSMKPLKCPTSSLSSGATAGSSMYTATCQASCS

Row | SMILES | EC50 [1] [nM] | Emax [1] [%] | EC50 [2] [nM] | Emax [2] [%]
1 | O=C(O)c1ccc2nc(Cc3ccc4cc3OCCCc3cc(-c5ccc(=O)[nH]c5)ccc3COc3cccc-4n3)n(C[C@@H]3CCO3)c2c1 [Example 80, (S)-1-(Oxetan-2-ylmethyl)-2-((5^4-(6-oxo-1,6-dihydropyridin-3-yl)-3,9-dioxa-2(2,6)-pyridina-1(1,3),5(1,2)-dibenzenacyclononaphane-1^4-yl)methyl)-1H-benzo[d]imidazole-6-carboxylic acid] | 130 | 84.1 | 303 | 56
2 | Cn1ncc(-c2ccc3c(c2)CCCOc2cc(ccc2Cc2nc4ccc(C(=O)O)cc4n2C[C@@H]2CCO2)-c2cccc(n2)OC3)n1 [Example 32, (S)-2-((5^4-(2-Methyl-2H-1,2,3-triazol-4-yl)-3,9-dioxa-2(2,6)-pyridina-1(1,3),5(1,2)-dibenzenacyclononaphane-1^4-yl)methyl)-1-(oxetan-2-ylmethyl)-1H-benzo[d]imidazole-6-carboxylic acid] | 178 | 98.9 | 530 | 70.9
3 | CN(C)C(=O)COc1cc(C(=O)O)cc2c1nc(Cc1ccc3cc1OCCCc1cc(C#N)ccc1COc1cccc-3n1)n2C[C@@H]1CCO1 [Example 62, (S)-2-((5^4-Cyano-3,9-dioxa-2(2,6)-pyridina-1(1,3),5(1,2)-dibenzenacyclononaphane-1^4-yl)methyl)-4-(2-(dimethylamino)-2-oxoethoxy)-1-(oxetan-2-ylmethyl)-1H-benzo[d]imidazole-6-carboxylic acid] | 285 | 62.2 | 737 | 32.9
4 | Cn1nccc1-c1ccc2c(c1)CCCOc1cc(ccc1Cc1nc3ccc(C(=O)O)cc3n1C[C@@H]1CCO1)-c1cccc(n1)OC2 [Example 31, (S)-2-((5^4-(1-Methyl-1H-pyrazol-5-yl)-3,9-dioxa-2(2,6)-pyridina-1(1,3),5(1,2)-dibenzenacyclononaphane-1^4-yl)methyl)-1-(oxetan-2-ylmethyl)-1H-benzo[d]imidazole-6-carboxylic acid] | 70.1 | 104 | 251 | 88.8
5 | CNCCOc1cc(C(=O)O)cc2c1nc(Cc1ccc3cc1COCCc1cc(Cl)ccc1COc1cccc-3n1)n2C[C@@H]1CCO1 [Example 57, (S)-2-((5^4-Chloro-3,8-dioxa-2(2,6)-pyridina-1(1,3),5(1,2)-dibenzenacyclononaphane-1^4-yl)methyl)-4-(2-(methylamino)ethoxy)-1-(oxetan-2-ylmethyl)-1H-benzo[d]imidazole-6-carboxylic acid] | 440 | 76.2 | 1030 | 42.1
6 | N#Cc1ccc2c(c1)COCc1cc(c(F)cc1Cc1nc3ccc(C(=O)O)cc3n1C[C@@H]1CCO1)-c1cccc(n1)OC2 [Example 14, (S)-2-((5^4-Cyano-1^6-fluoro-3,7-dioxa-2(2,6)-pyridina-1(1,3),5(1,2)-dibenzenacyclooctaphane-1^4-yl)methyl)-1-(oxetan-2-ylmethyl)-1H-benzo[d]imidazole-6-carboxylic acid] | 72.3 | 109 | 228 | 82.5
7 | N#Cc1ccc2c(c1)CCCOc1cc(ccc1Cc1nc3ccc(C(=O)O)cc3n1C[C@@H]1CCO1)-c1cccc(n1)OC2 [Example 4, (S)-2-((5^4-Cyano-3,9-dioxa-2(2,6)-pyridina-1(1,3),5(1,2)-dibenzenacyclononaphane-1^4-yl)methyl)-1-(oxetan-2-ylmethyl)-1H-benzo[d]imidazole-6-carboxylic acid] | 90.6 | 99.2 | 384 | 78.7
8 | Cc1cn(-c2ccc3c(c2)CCCOc2cc(ccc2Cc2nc4ccc(C(=O)O)cc4n2C[C@@H]2CCO2)-c2cccc(n2)OC3)cn1 [Example 72, (S)-2-((5^4-(4-Methyl-1H-imidazol-1-yl)-3,9-dioxa-2(2,6)-pyridina-1(1,3),5(1,2)-dibenzenacyclononaphane-1^4-yl)methyl)-1-(oxetan-2-ylmethyl)-1H-benzo[d]imidazole-6-carboxylic acid] | 92.5 | 106 | 348 | 90.4
9 | CN1CCC(Oc2cc(C(=O)O)cc3c2nc(Cc2ccc4cc2OCCCc2cc(C#N)ccc2COc2cccc-4n2)n3C[C@@H]2CCO2)C1 (stereo partly drawn) [Example 59, 2-((5^4-Cyano-3,9-dioxa-2(2,6)-pyridina-1(1,3),5(1,2)-dibenzenacyclononaphane-1^4-yl)methyl)-4-((1-methylpyrrolidin-3-yl)oxy)-1-(((S)-oxetan-2-yl)methyl)-1H-benzo[d]imidazole-6-carboxylic acid] | 262 | 90.9 | 515 | 48.4

Stronger by EC50 [1], values ahead:

Row | EC50 [1] [nM] | Emax [1] [%] | EC50 [2] [nM] | Emax [2] [%] | SMILES
10 | 58.4 | 108 | 153 | 84.3 | COCCOc1cc(C(=O)O)cc2c1nc(Cc1ccc3cc1COCCc1cc(C(F)(F)F)ncc1COc1cccc-3n1)n2C[C@@H]1CCO1 [Example 52, (S)-4-(2-Methoxyethoxy)-1-(oxetan-2-ylmethyl)-2-((5^6-(trifluoromethyl)-3,8-dioxa-2(2,6),5(3,4)-dipyridina-1(1,3)-benzenacyclononaphane-1^4-yl)methyl)-1H-benzo[d]imidazole-6-carboxylic acid]
11 | 10.5 | 121 | 38.4 | 84.6 | COc1cc(C(=O)O)cc2c1nc(Cc1cc(F)c3cc1COCc1cc(C#N)ccc1COc1cccc-3n1)n2C[C@@H]1CCO1 [Example 17, (S)-2-((5^4-cyano-1^6-fluoro-3,7-dioxa-2(2,6)-pyridina-1(1,3),5(1,2)-dibenzenacyclooctaphane-1^4-yl)methyl)-4-methoxy-1-(oxetan-2-ylmethyl)-1H-benzo[d]imidazole-6-carboxylic acid]
12 | 7.23 | 107 | 24.6 | 91.7 | COCCOc1cc(C(=O)O)cc2c1nc(Cc1ccc3cc1COCCc1nc(ccc1C#N)COc1cccc-3n1)n2C[C@@H]1CCO1 [Example 46, (S)-2-((5^5-Cyano-3,8-dioxa-2,5(2,6)-dipyridina-1(1,3)-benzenacyclononaphane-1^4-yl)methyl)-4-(2-methoxyethoxy)-1-(oxetan-2-ylmethyl)-1H-benzo[d]imidazole-6-carboxylic acid]
13 | 6.74 | 105 | 26.4 | 82.8 | COc1cc(C(=O)O)cc2c1nc(Cc1cc(C)c3cc1OCCCc1cc(C#N)ccc1COc1cccc-3c1)n2C[C@@H]1CCO1 [Example 15, (S)-2-((5^4-Cyano-1^6-methyl-3,9-dioxa-1,2(1,3),5(1,2)-tribenzenacyclononaphane-1^4-yl)methyl)-4-methoxy-1-(oxetan-2-ylmethyl)-1H-benzo[d]imidazole-6-carboxylic acid]
14 | 2.13 | 110 | 5.53 | 87.3 | COCCOc1cc(C(=O)O)cc2c1nc(Cc1ccc3cc1COCCc1cc(C#N)ccc1COc1cccc-3n1)n2C[C@@H]1CCO1 [Example 64, (S)-2-((5^4-Cyano-3,8-dioxa-2(2,6)-pyridina-1(1,3),5(1,2)-dibenzenacyclononaphane-1^4-yl)methyl)-4-(2-methoxyethoxy)-1-(oxetan-2-ylmethyl)-1H-benzo[d]imidazole-6-carboxylic acid]
15 | 1.8 | 118 | 5.44 | 83.1 | COc1cc(C(=O)O)cc2c1nc(Cc1cc(C)c3cc1OCCCc1cc(C#N)ccc1COc1cccc-3n1)n2C[C@@H]1CCO1 [Example 9, (S)-2-((5^4-Cyano-16-methyl-3,9-dioxa-2(2,6)-pyridina-1(1,3),5(1,2)-dibenzenacyclononaphane-1^4-yl)methyl)-4-methoxy-1-(oxetan-2-ylmethyl)-1H-benzo[d]imidazole-6-carboxylic acid]
